In patent US20190284293A1, “COMBINATION THERAPY WITH ANTI-CD73 ANTIBODIES” (BRISTOL-MYERS SQUIBB COMPANY, priority 2016, published 2019):

How the values were obtained:
[1] = target: T1, endogenous CD73 activity in Calu-6 cells (Homo sapiens, UniProt P21589); experiment: Dual cell line HTRF cAMP assay (Calu-6 and HEK293/A2AR cells); type: cell-based
T1 construct: Calu6 (CD73 endogenous expressors; human pulmonary adenocarcinoma cell line); endogenous in cells; host or cells: Calu6 (Calu-6) human pulmonary adenocarcinoma cells
T1 sequence (P21589 27-549): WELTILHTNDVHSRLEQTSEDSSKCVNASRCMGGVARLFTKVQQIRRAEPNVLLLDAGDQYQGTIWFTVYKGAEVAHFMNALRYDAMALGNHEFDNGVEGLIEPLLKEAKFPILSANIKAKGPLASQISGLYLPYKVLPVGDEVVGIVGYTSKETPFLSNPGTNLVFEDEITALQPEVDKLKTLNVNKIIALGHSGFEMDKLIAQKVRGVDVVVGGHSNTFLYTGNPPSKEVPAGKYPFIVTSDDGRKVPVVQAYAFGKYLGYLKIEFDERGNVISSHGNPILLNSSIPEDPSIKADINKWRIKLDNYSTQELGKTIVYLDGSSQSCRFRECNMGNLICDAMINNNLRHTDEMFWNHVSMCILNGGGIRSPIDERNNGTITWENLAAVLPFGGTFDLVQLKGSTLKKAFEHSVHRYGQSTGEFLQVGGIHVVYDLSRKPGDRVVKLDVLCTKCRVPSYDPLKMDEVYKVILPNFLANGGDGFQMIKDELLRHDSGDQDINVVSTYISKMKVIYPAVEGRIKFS
Procedure: CD73 antibodies were serial diluted with PBS buffer containing 0.2% BSA, and plated 5 μl/well in 384 well white bottom proxiplate (PerkinElmer, Waltham, Mass.). Calu-6 cells were harvested and resuspend in PBS containing 0.2% BSA, then 5 μl of cells (300 cells/well) were added to the plate. The cells were incubated with antibodies for 10 minutes at 37° C. […] The cells were further incubated with AMP for 30 minutes at 37° C. During this time, HEK293/A2AR cells were harvested and diluted to 0.4 million/ml in PBS containing 0.2% BSA. They were added into the assay plate at 5 μl/well and continued to incubate at 37° C. for 1 hr. HRTF assays were performed using the homogenous time-resolved fluorescence (HTRE) HiRange cAMP detection kit (Cisbio, Bedford, Mass.) by adding 10 cAMP-conjugated d2 and 10 europium conjugated anti-cAMP antibody in lysis buffer according to the manufacturer's instructions. Plates were incubated at room temperature for 60 minutes and Fluorescence Resonance Energy Transfer (FRET) signals (665 and 615 nM) were read using an EnVision plate reader (PerkinElmer, Waltham, Mass.). The FRET signal was calculated as the ratio of signal from the 665 nm (acceptor) and 615 nm (donor) channels and multiplied by 10,000. IC50 and Ymax were measured. […] All calculations were determined as a percentage of inhibition compared to this control, which was set to 100%.

all other FcγRs = experiment: SPR binding of constructs to human FcγRs; conditions: read-out: binding affinity to all other FcγRs
Procedure: Binding of the constructs to human FcγRs was measured via SPR. hCD64 and hCD32a-H131 binding data for IgG1.1 and IgG2 molecules were consistent with expected values for the different Fcs. IgG1.1f is the most inert Fc.

cyno FcγRs = experiment: SPR binding of constructs to cyno FcγRs; conditions: read-out: binding affinity to cyno FcγRs
human FcRn = human FcRn (Homo sapiens, UniProt P55899); experiment: SPR binding to human FcRn; conditions: strong at pH6, weak binding with fast dissociation at pH 7.4

Kd (all other FcγRs)	Kd (cyno FcγRs)	binding to human FcRn (human FcRn)	Compound	IC50 ([1]; cAMP assay)	Ymax ([1]; percentage of inhibition compared to 100 nM 11F11 set to 100%)
–	–	–	Nc1ncnc2c1ncn2[C@@H]1O[C@H](COP(=O)(O)CP(=O)(O)O)[C@@H](O)[C@H]1O [APCP]	1.29 nM	97
< 5000 nM	> 5000 nM	pH-dependent binding	IgG2-C219S-G1.1f: effectorless IgG1/IgG2 hybrid constant region: CH1 and hinge from IgG2 (C219S), CH2 and CH3 of IgG1 (A330S/P331S); SEQ ID NO:169	–	–
